Measurements from patent publication US20250129067A1 (Progentos Therapeutics, Inc., priority 2021, published 2025).
Where two headings read alike, the source gives them in different places.

Columns and labels:
[1] = tested on: Oligodendrocyte progenitor cells (OPCs); experiment: In vitro OPC differentiation assay, GPR17 expression (immunocytochemistry); details: 72 hours; for GPR17 Fold Induction (Over Vehicle; 3 μM): 3 μM (10× concentration, final 0.3 μM), fold change over vehicle; for GPR17 Fold Induction (Over Vehicle; 5 μM): primary rat OPCs, 5 μM (10x; final 0.5 μM per method), percent GPR17+ cells as fold change over vehicle
Method: To assess the effects of the PDGFRα inhibitors on OPC differentiation, primary OPCs were cultured and exposed to compounds. The number of newly generated oligodendrocytes was assessed by monitoring GPR17 expression. GPR17 is preferentially expressed in actively differentiating oligodendrocytes, allowing them to be distinguished from precursors and more differentiated oligodendrocytes.
Cortices from postnatal day (P) 1-3 rats were dissected and collected into ice cold Hank's Balanced Salt Solution (HBSS). […] Briefly, the cortical cell suspension was centrifuged and washed with buffer (0.5% BSA in PBS) and labeled with Anti-A2B^5 MicroBeads (10 μL beads per 1×10^7 cells) for 15 minutes at 4° C. Following the incubation, cells were washed once with BSA buffer to remove unlabeled beads. A2B^5 positive cells were eluted on the column using the AutoMACS® (Miltenyi, as per manufacturer's protocol using “Possel-s” program). Eluted cells were further washed twice with OPC growth media. Cell counts were performed using Countess III cell counter (ThermoFisher; AMQAX2000) and cells were plated.
The plates were allowed to sit at room temperature for 15 minutes to ensure proper dispersion of cells in a well. The plates were then transferred to the incubator (37° C.; 5% CO2).
Cells were then incubated for 72 hours at 37° C., 5% CO2 before immunostaining for GPR17 marker expression.
Following 72 hours in culture, cells were fixed with 4% paraformaldehyde for 15 minutes and then washed three times in Dulbecco's phosphate buffered saline (DPBS). Prior to immunostaining, cells were treated with a blocking solution (10% normal goat serum containing 1% BSA and 0.1% Triton® X-100 in DPBS) for 15 minutes at room temperature. Primary antibody (anti-GPR17 at 1:2000; Origene TA811615) was applied to cells overnight at 4° C. in incubation solution containing 1% normal goat serum, 1% BSA, and 0.1% Triton X-100 in DPBS. […] The secondary antibody was applied in incubation solution for 2 hours at room temperature, protected from light.
The number of differentiated GPR17+ cells was normalized to the total nuclei count and percent differentiated GPR17+ cells were reported. Statistical analysis was done using one-way ANOVA with multiple comparisons and post-hoc Tukey test in GraphPad Prism (GraphPad Software).

[2] = tested on: GPR17+ cells (newly differentiated oligodendrocytes); experiment: In vivo OPC differentiation, GPR17+ cells in brain; details: for In vivo GPR17+ cells, GPR17 Fold Induction (Over Vehicle): adult female C57BL/6 mice, PO or IP, treatment period 1-3 days, entire brain, fold change over vehicle treated animals
Method: The ability of newly constructed compounds to drive OPC differentiation and myelination in vivo was tested. The ability of these compounds to drive OPC differentiation in vivo was tested using GPR17 as an indicator of newly differentiated oligodendrocytes.
Compounds were delivered PO or IP either QD or BID. Mice were dosed once, transiently, or continuously through the treatment period, which ranged from 1-3 days.
Mice were euthanized by isoflurane exposure and transcardially perfused with 14 mL of PBS (Sigma Cat #P4417-50TAB) followed by 22 mL of 3.2% paraformaldehyde in PBS. The brains were removed and postfixed for a minimum of 24 hours in 20 mL of 3.2% paraformaldehyde.
50-micron floating sections were cut using a Leica VT1200S vibratome. Every 24th section, extending through the antero-posterior extent of the brain, was stained. The selected brain sections were washed three times in PBS for 3 minutes each. The floating sections were incubated in the primary antibodies (see Table 10, below) diluted in blocking solution overnight at room temperature on a shaker. […] The next day, the sections were again washed three times in PBS for 3 minutes each and then incubated in the secondary antibodies diluted in blocking solution for 2 hours at room temperature on a shaker. After incubation, the sections were washed three times in PBS for 3 minutes each and mounted on a slide to be imaged using the Olympus Slide Scanner VS200.
The images were analyzed using a custom protocol developed using Visiopharm software to count GPR17+ cells. Cells were considered GPR17+ if they contained an Olig2 positive nucleus, and intense GPR 17 staining that filled their processes. Statistical analysis was done using one-way ANOVA with multiple comparison in GraphPad Prism software.

PDGFRα = PDGFRα (Homo sapiens (Human), UniProt P16234); experiment: PDGFRα kinase enzyme assay (Promega PDGFRα Kinase Enzyme System, ADP-Glo); type: biochemical; details: 150 uM ATP
Sequence of PDGFRα (P16234 24-1089): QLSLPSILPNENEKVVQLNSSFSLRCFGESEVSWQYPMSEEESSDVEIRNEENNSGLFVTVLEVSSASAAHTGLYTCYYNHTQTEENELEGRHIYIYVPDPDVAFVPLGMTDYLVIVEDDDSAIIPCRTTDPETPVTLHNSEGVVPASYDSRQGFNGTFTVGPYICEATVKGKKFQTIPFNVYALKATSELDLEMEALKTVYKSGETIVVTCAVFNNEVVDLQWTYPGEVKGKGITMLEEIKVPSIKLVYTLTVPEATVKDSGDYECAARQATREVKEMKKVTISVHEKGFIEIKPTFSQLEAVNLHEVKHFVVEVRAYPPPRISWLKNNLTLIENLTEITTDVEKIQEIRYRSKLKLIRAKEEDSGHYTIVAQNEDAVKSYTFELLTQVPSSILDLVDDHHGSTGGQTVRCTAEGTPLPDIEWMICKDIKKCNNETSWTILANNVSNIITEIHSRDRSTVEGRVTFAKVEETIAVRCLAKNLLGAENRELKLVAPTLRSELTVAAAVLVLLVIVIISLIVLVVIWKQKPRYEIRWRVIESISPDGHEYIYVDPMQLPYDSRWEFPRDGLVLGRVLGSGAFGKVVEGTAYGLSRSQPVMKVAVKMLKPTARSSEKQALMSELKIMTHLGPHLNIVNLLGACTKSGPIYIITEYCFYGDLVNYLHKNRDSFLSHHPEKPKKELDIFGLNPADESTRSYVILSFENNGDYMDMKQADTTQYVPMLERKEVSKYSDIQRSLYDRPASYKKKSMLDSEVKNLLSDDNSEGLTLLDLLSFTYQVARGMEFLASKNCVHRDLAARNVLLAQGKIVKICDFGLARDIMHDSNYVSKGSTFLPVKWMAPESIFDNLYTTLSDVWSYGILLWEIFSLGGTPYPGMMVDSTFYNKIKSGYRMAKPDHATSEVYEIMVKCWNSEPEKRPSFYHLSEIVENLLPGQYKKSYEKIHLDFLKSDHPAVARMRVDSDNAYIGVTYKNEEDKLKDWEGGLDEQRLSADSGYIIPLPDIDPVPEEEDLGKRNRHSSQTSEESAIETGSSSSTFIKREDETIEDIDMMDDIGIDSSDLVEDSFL
Method in brief: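 Read-out was ADP-Glo: remaining ATP depleted, ADP converted to luminescence and compared with a standard curve.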

[3] = Mus musculus, po, 24 h, read-out: GPR17 Fold Induction (Over Vehicle)
[4] = 11-point dose response, 10,000 nM to 0.169 nM, BLQ = below limit of quantitation, read-out: IC50 Values on PDGFRα Kinase Inhibition, IC50
[5] = 11-point dose response, 10,000 nM to 0.169 nM, BLQ = below limit of quantitation
[6] = 20 ng purified PDGFRα, Poly (Glu4Tyr1) substrate, two hours, 11-point dose response, read-out: IC50 Values on PDGFRα Kinase Inhibition

Row | SMILES | GPR17 Fold Induction (Over Vehicle; 3 μM) [1] | fold induction at 3 mg/kg [2, 3] | IC50 (PDGFRα; [4]) | further results
1 | Cn1cc(-c2ccc3c(N4CCN(c5ccc(Cc6ccccc6)nc5)CC4)cnn3c2)cn1 [Compound 151, 3-(4-(6-benzylpyridin-3-yl)piperazin-1-yl)-6-(1-methyl-1H-pyrazol-4-yl)pyrazolo[1,5-a]pyridine] | 20.40 | 1.73 | 2780 nM | –
2 | Cn1cc(-c2ccc3c(N4CCN(C(=O)NCc5ccc(C(F)(F)F)cc5)CC4)cnn3c2)cn1 [Compound 279, 4-[6-(1-methyl-1H-pyrazol-4-yl)pyrazolo[1,5-a]pyridin-3-yl]-N-[4-(trifluoromethyl)benzyl]piperazine-1-carboxamide] | 3.62 | 6.33 | 58.9 nM | –
3 | C[C@@H](OC(=O)N1CCN(c2cnn3cc(-c4cnn(C)c4)ccc23)CC1)c1ccc(OC(F)(F)F)cc1 [Compound 268, (1R)-1-[4-(trifluoromethoxy)phenyl]ethyl 4-[6-(1-methyl-1H-pyrazol-4-yl)pyrazolo[1,5-a]pyridin-3-yl]piperazine-1-carboxylate] | 5.57 | 7.02 | 11.8 nM | –
4 | C[C@@H](OC(=O)N1CCN(c2cnn3cc(-c4cnn(C)c4)ccc23)CC1)c1ccc(F)cc1 [Compound 77, (1R)-1-(4-Fluorophenyl)ethyl 4-[6-(1-methyl-1H-pyrazol-4-yl)pyrazolo[1,5-a]pyridin-3-yl]piperazine-1-carboxylate] | 7.12 | 8.64 | – | IC50 Values on PDGFRα Kinase Inhibition, IC50 (nM) (PDGFRα; [5]): BLQ
5 | CC(C)(C)OC(=O)N1CCN(c2cnn3cc(-c4cccnc4)ccc23)CC1 [Compound 217, tert-butyl 4-(6-(pyridin-3-yl)pyrazolo[1,5-a]pyridin-3-yl)piperazine-1-carboxylate] | 1.69 | 0.97 | 594 nM | –
6 | CC1CN(c2cnn3cc(-c4cnn(C)c4)ccc23)CCN1C(=O)OC(C)(C)C (stereo not shown) [Compound 238, tert-butyl-2-methyl-4-(6-(1-methyl-1H-pyrazol-4-yl)pyrazolo[1,5-a]pyridin-3-yl)piperazine-1-carboxylate] | 6.34 | 1.54 | 430 nM | –
7 | Cn1cc(-c2ccc3c(N4CCN(c5ccc(C(O)c6ccccc6)nc5)CC4)cnn3c2)cn1 (stereo not shown) [Compound 241, (5-(4-(6-(1-methyl-1H-pyrazol-4-yl)pyrazolo[1,5-a]pyridin-3-yl)piperazin-1-yl)pyridin-2-yl)(phenyl)methanol] | 16.27 | 6.43 | 974 nM | –
8 | Cn1cc(-c2ccc3c(N4CCN(c5ncc(Cc6ccco6)cn5)CC4)cnn3c2)cn1 [Compound 181, 3-(4-(5-(furan-2-ylmethyl)pyrimidin-2-yl)piperazin-1-yl)-6-(1-methyl-1H-pyrazol-4-yl)pyrazolo[1,5-a]pyridine] | 4.87 | 1 | 1860 nM | –
9 | Cc1ccc(Cc2cnc(N3CCN(c4cnn5cc(-c6cnn(C)c6)ccc45)CC3)nc2)cc1 [Compound 67, 3-{4-[5-(4-methylbenzyl)pyrimidin-2-yl]piperazin-1-yl}-6-(1-methyl-1H-pyrazol-4-yl)pyrazolo[1,5-a]pyridine] | 3.41 | – | 784 nM | fold induction at 10 mg/kg [2, 3]: 9.4
10 | Cn1cc(-c2ccc3c(N4CCN(c5ncn(Cc6ccccc6)n5)CC4)cnn3c2)cn1 [Compound 156, 3-(4-(1-benzyl-1H-1,2,4-triazol-3-yl)piperazin-1-yl)-6-(1-methyl-1H-pyrazol-4-yl)pyrazolo[1,5-a]pyridine] | 3.92 | 11.5 | 245 nM | –
11 | Cn1cc(-c2ccc3c(N4CCN(c5ncc(CC6CCCCO6)cn5)CC4)cnn3c2)cn1 (stereo not shown) [Compound 184, 6-(1-methyl-1H-pyrazol-4-yl)-3-(4-(5-((tetrahydro-2H-pyran-2-yl)methyl)pyrimidin-2-yl)piperazin-1-yl)pyrazolo[1,5-a]pyridine] | 9.26 | 1.07 | 126 nM | –
12 | C[C@@H](OC(=O)N1CCN(c2cnn3cc(-c4cnn(C)c4)cnc23)CC1)c1ccccc1 [Compound 73, (1R)-1-Phenylethyl 4-[6-(1-methyl-1H-pyrazol-4-yl)pyrazolo[1,5-a]pyrimidin-3-yl]piperazine-1-carboxylate] | 6.68 | 1.77 | 116 nM | –
13 | COc1cc2c(cc1OC)-c1[nH]nc(Nc3cccc(F)c3)c1C2 [JNJ-10198409, JNJ=10198409, reference compound] | – | – | – | GPR17 Fold Induction (Over Vehicle; 5 μM) [1]: 3.87; In vivo GPR17+ cells, GPR17 Fold Induction (Over Vehicle) [2]: 1.16; IC50 (PDGFRα; [6]): > 10000 nM
14 | Cn1cc(-c2ccc3c(N4CCN(c5ncc(Cc6ccccc6)o5)CC4)cnn3c2)cn1 [Compound 247, 5-benzyl-2-(4-(6-(1-methyl-1H-pyrazol-4-yl)pyrazolo[1,5-a]pyridin-3-yl)piperazin-1-yl)oxazole] | 2.45 | – | 1780 nM | fold induction at 30 mg/kg [2, 3]: 8.43
15 | CC(OC(=O)N1CCN(c2cnn3cc(-c4cnn(C)c4)ccc23)CC1)c1ccc(C(F)(F)F)c(F)c1 (stereo not shown) [Compound 273, 1-(3-fluoro-4-(trifluoromethyl)phenyl)ethyl 4-(6-(1-methyl-1H-pyrazol-4-yl)pyrazolo[1,5-a]pyridin-3-yl)piperazine-1-carboxylate] | 9.05 | 3.78 | 13 nM | –
16 | Cn1cc(-c2ccc3c(N4CCN(c5ncc(C(CO)c6ccc(F)cc6)cn5)CC4)cnn3c2)cn1 (stereo not shown) [Compound 257, 2-(4-fluorophenyl)-2-(2-(4-(6-(1-methyl-1H-pyrazol-4-yl)pyrazolo[1,5-a]pyridin-3-yl)piperazin-1-yl)pyrimidin-5-yl)ethan-1-ol] | 10.85 | 2.32 | 79.8 nM | –
17 | CN1CCN(c2ccc(Nc3ncc4cc(C#N)c(=O)n(C5CCCC5)c4n3)cc2)CC1 [ON123300, reference compound] | – | – | – | GPR17 Fold Induction (Over Vehicle; 5 μM) [1]: 6.72; In vivo GPR17+ cells, GPR17 Fold Induction (Over Vehicle) [2]: 1.49; IC50 (PDGFRα; [6]): 73.5 nM
18 | Cn1cc(-c2ccc3c(N4CCN(c5ncc(C(O)C6CCOCC6)cn5)CC4)cnn3c2)cn1 (stereo not shown) [Compound 69, (2-{4-[6-(1-methyl-1H-pyrazol-4-yl)pyrazolo[1,5-a]pyridin-3-yl]piperazin-1-yl}pyrimidin-5-yl)(tetrahydro-2H-pyran-4-yl)methanol] | 4.53 | 1.09 | 154 nM | fold induction at 30 mg/kg [2, 3]: 2.34
19 | COc1ccc(N2Cc3cnc(Nc4ccc(F)cc4)nc3N([C@@H]3CC[C@@H](O)C3)C2=O)cc1 [RO4396686, reference compound] | – | – | – | GPR17 Fold Induction (Over Vehicle; 5 μM) [1]: 3.61; In vivo GPR17+ cells, GPR17 Fold Induction (Over Vehicle) [2]: 9.23; IC50 (PDGFRα; [6]): 370 nM
20 | CNC(=O)c1cc(COc2nnc(Nc3ccc(Cl)cc3)c3ccoc23)ccn1 [Telatinib, telatinib, reference compound] | – | – | – | GPR17 Fold Induction (Over Vehicle; 5 μM) [1]: 3.90; In vivo GPR17+ cells, GPR17 Fold Induction (Over Vehicle) [2]: 10.68; IC50 (PDGFRα; [6]): 68.8 nM
21 | C[C@@H](OC(=O)N1CCN(c2cnc3cc(-c4cnn(C)c4)cnn23)CC1)c1ccc(Cl)cc1 [Compound 282, (R)-1-(4-chlorophenyl)ethyl 4-(7-(1-methyl-1H-pyrazol-4-yl)imidazo[1,2-b]pyridazin-3-yl)piperazine-1-carboxylate] | 6.40 | 4.02 | – | IC50 Values on PDGFRα Kinase Inhibition, IC50 (nM) (PDGFRα; [5]): BLQ
22 | [2H]c1c([2H])c(C(OC(=O)N2CCN(c3cnn4cc(-c5cnn(C)c5)ccc34)CC2)C([2H])([2H])[2H])c([2H])c([2H])c1Cl (stereo not shown) [Compound 291, 1-(4-chlorophenyl-2,3,5,6-d4) ethyl-2,2,2-d3 4-(6-(1-methyl-1H-pyrazol-4-yl)pyrazolo[1,5-a]pyridin-3-yl)piperazine-1-carboxylate] | 6.24 | 6.93 | 0.016 nM | –
23 | C[C@@H](OC(=O)N1CCN(c2cnn3cc(-c4cnn(C)c4)ccc23)CC1)c1cccc(F)c1 [Compound 79, (1R)-1-(3-Fluorophenyl)ethyl 4-[6-(1-methyl-1H-pyrazol-4-yl)pyrazolo[1,5-a]pyridin-3-yl]piperazine-1-carboxylate] | 5.46 | 2.81 | 16.1 nM | –
24 | C[C@@H](OC(=O)N1CCN(c2cnn3cc(-c4cnn(C)c4)ccc23)CC1)c1cccnc1 [Compound 315, (1R)-1-pyridin-3-ylethyl 4-[6-(1-methyl-1H-pyrazol-4-yl)pyrazolo[1,5-a]pyridin-3-yl]piperazine-1-carboxylate] | 4.27 | 1.05 | 547 nM | –
25 | COCCOc1ccc2c(c1)ncn2-c1ccc2cccc(N3CCC(N)CC3)c2n1 [CP-673451, reference compound] | – | – | – | GPR17 Fold Induction (Over Vehicle; 5 μM) [1]: 2.94; In vivo GPR17+ cells, GPR17 Fold Induction (Over Vehicle) [2]: 3.52; IC50 (PDGFRα; [6]): 115 nM
